# Results: ChEMBL document CHEMBL5038640, “Natural Berberine-derived Azolyl Ethanols as New Structural Antibacterial Agents against Drug-Resistant Escherichia coli” (J Med Chem, 2022)
# Calls of active or inactive are those of the source. The rule behind the calls is not given here.
# Columns and labels:
# Acinetobacter baumannii = assay: Antibacterial activity against Acinetobacter baumannii assessed as decrease in bacterial growth incubated for 18 hrs by broth microdilution method; format: functional
# A549 = assay: Cytotoxicity against human A549 cells assessed as cell viability upto 0.100 mM incubated for 24 hrs by MTT assay; format: functional, cell-based; conditions: dose mM <=0.100, time 24.0 hrs
# Cell membrane [1] = assay: Induction of membrane depolarization in Escherichia coli at 0.006 to 0.096 mM incubated for 6 hrs by DiSC35 dye-based fluorescence assay; format: subcellular; conditions: dose 0.006-0.096 mM
# Staphylococcus aureus [2] = assay: Antibacterial activity against Staphylococcus aureus ATCC 29213 assessed as decrease in bacterial growth incubated for 18 hrs by broth microdilution method; format: functional
# Enterococcus faecalis = assay: Antibacterial activity against Enterococcus faecalis assessed as decrease in bacterial growth incubated for 18 hrs by broth microdilution method; format: functional
# Calf thymus DNA = assay: Binding affinity to calf thymus DNA assessed as red shift in absorption spectra at pH 7.4 by UV-vis absorption spectroscopy; format: nucleic-acid assay; conditions: Bos taurus
# Cell membrane [3] = assay: Induction of cell membrane disruption in Escherichia coli assessed as increase in protein leakage upto 0.224 mM by Bradford assay; format: subcellular; conditions: dose mM <=0.224
# Staphylococcus aureus [4] = assay: Antibacterial activity against Staphylococcus aureus assessed as decrease in bacterial growth incubated for 18 hrs by broth microdilution method; format: functional
# Cell membrane [5] = assay: Induction of Inner membrane permeabilization in Escherichia coli assessed as increase in fluorescence intensity at MIC incubated for 6 hrs by PI staining based assay; format: subcellular
# Escherichia coli [6] = assay: Biofilm disruption activity in Escherichia coli assessed as reduction in exo-polysaccharide incubated for 24 hrs by crystal violet staining based assay; format: functional, organism-based
# Escherichia coli [7] = assay: Antibacterial activity against Escherichia coli assessed as reduction in metabolic activity in presence of resazurin measured after 6 hrs by alamar blue assay; format: functional, organism-based
# Escherichia coli [8] = assay: Antibacterial activity against Escherichia coli assessed as decrease in bacterial growth incubated for 18 hrs by broth microdilution method; format: functional
# Escherichia coli [9] = assay: Biofilm disruption activity in Escherichia coli at MIC incubated for 24 hrs by crystal violet staining based assay; format: functional; conditions: dose 0.007 mM
# Pseudomonas aeruginosa [10] = assay: Antibacterial activity against Pseudomonas aeruginosa assessed as decrease in bacterial growth incubated for 18 hrs by broth microdilution method; format: functional
# Cell membrane [11] = assay: Induction of membrane disruption in Escherichia coli at 2 times of MIC incubated for 6 hrs by DAPI staining and propidium iodide staining based fluorescence assay; format: subcellular
# Escherichia coli [12] = assay: Anti-bioflim activity against Escherichia coli assessed as inhibition of bioflim formation at MIC incubated for 24 hrs followed by compound washout by crystal violet staining based assay; format: functional
# Staphylococcus aureus [13] = assay: Antibacterial activity against methicillin-resistant Staphylococcus aureus N315 assessed as decrease in bacterial growth incubated for 18 hrs by broth microdilution method; format: functional
# Cell membrane [14] = assay: Induction of outer membrane permeabilization in Escherichia coli assessed as increase in fluorescence intensity at MIC incubated for 6 hrs by NPN-dye based fluorescence assay; format: subcellular
# Escherichia coli [15] = assay: Biofilm disruption activity in Escherichia coli assessed as mass loss of biofilm upto 0.096 mM incubated for 24 hrs by crystal violet staining based assay; format: functional, organism-based; conditions: dose mM <=0.096, time 24.0 hrs
# Escherichia coli [16] = assay: Induction of bacterial resistance in Escherichia coli assessed as fold increase in MIC measured after 16 days by resistance development assay; format: functional; conditions: time 16.0 day
# DNA = assay: Competitive binding affinity to Escherichia coli DNA assessed as DNA intercalation by AO staining based assay; format: nucleic-acid assay
# Escherichia coli [17] = assay: Induction of bacterial resistance in Escherichia coli assessed as change in MIC measured after 16 days by resistance development assay; format: functional; conditions: time 16.0 day
# [18] = Cytotoxicity against human FHC cells assessed as cell viability upto 0.100 mM incubated for 24 hrs by MTT assay; format: toxicity, cell-based; conditions: read-out: Activity
# Escherichia coli [19] = assay: Bactericidal activity against Escherichia coli assessed as reduction in colony formation at 8 times MIC measured after upto 6 hrs by time kill assay; format: functional, organism-based; conditions: time hrs <=6
# Cell membrane [20] = assay: Induction of cell membrane disruption in Escherichia coli assessed as increase in protein leakage upto 0.192 mM by Bradford assay; format: subcellular; conditions: dose mM <=0.192
# [21] = Cytotoxicity against human PNT1A cells assessed as cell viability upto 0.100 mM incubated for 24 hrs by MTT assay; format: toxicity, cell-based; conditions: read-out: Activity
# Escherichia coli [22] = assay: Induction of intracellular ROS production in Escherichia coli assessed as increase in ROS accumulation at 0.006 to 0.192 mM incubated for 6 hrs by DCFH-DA assay; format: functional, organism-based; conditions: dose 0.006-0.192 mM
# Pseudomonas aeruginosa [23] = assay: Antibacterial activity against Pseudomonas aeruginosa ATCC 27853 assessed as decrease in bacterial growth incubated for 18 hrs by broth microdilution method; format: functional
# [24] = Aqueous solubility of the compound in saline; format: physicochemical
# Staphylococcus aureus [25] = assay: Antibacterial activity against Staphylococcus aureus ATCC 25923 assessed as decrease in bacterial growth incubated for 18 hrs by broth microdilution method; format: functional
# Escherichia coli [26] = assay: Antibacterial activity against Escherichia coli ATCC 25922 assessed as decrease in bacterial growth incubated for 18 hrs by broth microdilution method; format: functional
# [27] = Hemolytic activity against human RBC assessed as 50% hemolysis measured upto 64 times of MIC after 1 to 8 hr; format: toxicity, cell-based; conditions: erythrocyte, time 1-8 hrs
# Klebsiella pneumoniae = assay: Antibacterial activity against Klebsiella pneumoniae assessed as decrease in bacterial growth incubated for 18 hrs by broth microdilution method; format: functional
structure (smiles),measurement,setting,value
COc1ccc2cc3[n+](cc2c1OCC(O)CSc1nc2ccccc2s1)CCc1cc2c(cc1-3)OCO2.[Br-] (stereo not drawn),MIC,Acinetobacter baumannii,26 µM
same,Activity,A549,inactive
same,Activity,Cell membrane [1],Active
same,MIC,Staphylococcus aureus [2],51 µM
same,MIC,Enterococcus faecalis,51 µM
same,Activity,Calf thymus DNA,Active
same,Activity,Cell membrane [3],Active
same,MIC,Staphylococcus aureus [4],51 µM
same,Activity,Cell membrane [5],Active
same,Activity,Escherichia coli [6],Active
same,Activity,Escherichia coli [7],Active
same,MIC,Escherichia coli [8],6 µM
same,Activity,Escherichia coli [9],15%
same,MIC,Pseudomonas aeruginosa [10],102 µM
same,Activity,Cell membrane [11],Active
same,inhibition (INH),Escherichia coli [12],21.87%
same,MIC,Staphylococcus aureus [13],6 µM
same,Activity,Cell membrane [14],Active
same,Activity,Escherichia coli [15],Dose-Dependent Effect
same,Activity,Escherichia coli [16],inactive
same,Activity,DNA,Active
same,Activity,Escherichia coli [17],inactive
same,viability at 24 h,[18],70%
same,Activity,Escherichia coli [19],Active
same,Activity,Cell membrane [20],Active
same,viability at 24 h,[21],70%
same,Activity,Escherichia coli [22],Active
same,MIC,Pseudomonas aeruginosa [23],51 µM
same,solubility,[24],770 µM
same,MIC,Staphylococcus aureus [25],13 µM
same,MIC,Escherichia coli [26],51 µM
same,Activity,[27],Non-Toxic
same,MIC,Klebsiella pneumoniae,13 µM
